Laboratory results as given in patent US20100099698A1, “Compositions for Improving Skin Conditions Comprising Matrine or Its Oxidized Derivatives” (Biospectrum Inc., priority 2007, published 2010).
Where two headings read alike, the source gives them in different places.

What was measured:
[1] = Anti-oxidation: removal of superoxide anion generated by xanthine oxidase (SOD Assay Kit-WST); assay type: biochemical
Procedure: This experiment evaluates anti-oxidation activity of sample by observing removal of superoxide anion generated by xanthine oxidase. The experiment was performed using the kit (SOD Assay Kit-WST) purchased from Dojindo (JP) in accordance with manufacture's protocol.

B16 mouse melanoma cells = assay: Inhibition of melanin production in melanoma cells; assay type: cell-based; details: 72 h, read-out: Inhibitory rate of melanin production (%)
Procedure: After measuring the inhibition of melanin production by matrine and oxymatrine using B16 mouse melanoma cells (Korean Cell Line Bank), the measurement was compared with that for the inhibition of melanin production by arbutin, known as a melanin production inhibitor.
B16 mouse melanoma cells F10 (Korean Cell Line Bank) were seeded into each well of a 6-well plate (1×10^5 cells/well) in DMEM (Dulbecco's modified Eagle's media) containing 10% FBS (fetal bovine serum) and the cells were cultured to about more than 80% confluence by incubating in a CO2 incubator under conditions of 37° C. and 5.0% CO2. After cultivation, the medium was removed and samples were replaced in medium diluted at suitable concentration, followed by incubating for 3 days under conditions of 37° C. and 5.0% CO2. […] The cells removing medium were washed with PBS (phosphate buffer saline) and treated with trypsin to collect cells. Number of the collected cells was calculated using hematocytometer (Tiefe Depth Profondeur 0.100 mm, Paul Marienfeld GmbH & Co. KG, D.E), centrifuged at 5,000 to 10,000 rpm for 10 min and the supernatant was eliminated, thereby obtaining pellets. This cell pellets were dried at 60° C., 100 μl of 1M NaOH containing 10% DMSO was added to thereto, and intracellular melanin was obtained in incubator at 60° C. Then, the cell solution was measured for absorbance at 490 nm using microplate reader (Bio-Tek ELx8081U, U.S) and the amount of melanin per cell constant number was estimated.

tyrosinase = molecular target: T1, tyrosinase (Mus musculus, UniProt P11344); assay: Inhibition of intracellular tyrosinase activity in melanoma cells; assay type: cell-based, Murine; details: B16-F1, read-out: Inhibitory rate of intracellular tyrosinase activity (%)
T1 construct: This cell pellets were lysated using lysis buffer, centrifuged at 12,000 rpm for 10 min and the supernatant was collected; endogenous in cells; host or cells: B16 F1 mouse melanoma cells (Korean Cell Line Bank)
T1 sequence (P11344 19-533): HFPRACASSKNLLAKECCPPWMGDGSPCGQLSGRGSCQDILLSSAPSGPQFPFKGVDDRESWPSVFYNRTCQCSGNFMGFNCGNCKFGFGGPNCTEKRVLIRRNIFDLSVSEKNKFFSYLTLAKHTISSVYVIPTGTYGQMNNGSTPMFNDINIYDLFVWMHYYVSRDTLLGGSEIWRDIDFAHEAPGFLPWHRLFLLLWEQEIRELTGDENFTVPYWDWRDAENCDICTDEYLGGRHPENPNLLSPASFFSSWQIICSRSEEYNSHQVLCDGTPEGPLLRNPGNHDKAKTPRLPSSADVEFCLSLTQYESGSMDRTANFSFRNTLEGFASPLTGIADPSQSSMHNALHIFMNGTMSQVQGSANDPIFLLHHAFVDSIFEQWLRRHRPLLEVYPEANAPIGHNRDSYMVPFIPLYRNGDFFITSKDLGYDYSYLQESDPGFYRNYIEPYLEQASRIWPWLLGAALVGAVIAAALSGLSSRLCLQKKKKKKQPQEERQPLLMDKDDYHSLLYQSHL
Procedure: After measuring the inhibition of melanin production by matrine and oxymatrine using B16 mouse melanoma cells (Korean Cell Line Bank), the measurement was compared with that for the inhibition of intracellular tyrosinase activities by arbutin, known as a melanin production inhibitor.
Murine melanoma (B-16 F1) cells were seeded into each well of a 6-well plate (1×10^5 cells/well) in DMEM containing 10% FBS (fetal bovine serum) and the cells were cultured to about more than 80% adherence by incubating in a CO2 incubator under conditions of 37° C. and 5.0% CO2. After cultivation, the medium was removed and samples were replaced in medium diluted at suitable concentration, followed by incubating for 3 days under conditions of 37° C. and 5.0% CO2. […] The cells removing medium were washed with PBS (phosphate buffer saline) and treated with trypsin to collect cells. Number of the collected cells was calculated using hematocytometer, centrifuged at 5,000 to 10,000 rpm for 10 min and the supernatant was eliminated, thereby obtaining pellets. This cell pellets were lysated using lysis buffer, centrifuged at 12,000 rpm for 10 min and the supernatant was collected. Then, the cell solution was measured for absorbance at 492 nm using microplate reader and the activity of tyrosinase per cell constant number was estimated.

[2] = tested on: collagen (Type 1 collagen) biosynthesis; assay: Collagen synthesis: procollagen type I C-peptide (PICP) EIA in medium of treated fibroblasts; assay type: cell-based; details: 24 hr, human fibroblasts
Procedure: Human fibroblasts (commercially available from pacific) were seeded into a 6-well plate (2×10^5 cells/well) and the well plate was incubated in a 5% CO2 incubator for 24 hr at 37° C. After 24 hr, the medium in each well was removed and samples were treated with various concentrations, followed by incubating again for 24 hr. Following incubation, the cell medium was collected and was used as samples. To measure cytotoxicity of samples to fibroblasts, MIT reagent (1 mg/ml) was added to each well in 1/10 fold volume of the remaining medium, incubated for 3 hr and the medium was eliminated. The medium was dissolved in DMSO and its absorbance at 540 nm was measured.
The extent of collagen synthesis was determined by measuring the amount of procollagen type I C-peptide (PICP) in cell medium using Procollagen Type I C-peptide EIA kit (MK101, Takara, Kyoto, Japan). The method was performed in accordance with manufacturer's protocol.

human skin = assay: 24-hour cumulative patch test (Finn chamber), cumulative skin irritation; assay type: in vivo; details: for Average reaction level: 9 patches, 30 adults, safe if below 3
Procedure: In order to find out whether matrine and oxymatrine are safe for use on human skin, a skin safety test was conducted. Suitable for this was a cumulative skin irritation test.
Squalene-based preparations containing matrine and oxymatrine in amounts of 1%, 5%, and 10% were applied in patches 9 times to the upper arms of 30 healthy adults once every other day for a total time period of 24 hours. This 24-hour cumulative patch test was conducted to determine whether matrine and oxymatrine irritates the skin or not.
The Finn chamber (Epitest Ltd, Finland) was chosen as the patching method. The above preparation for external use on the skin was dropped into each chamber in an amount of 15 μl, and a patch was applied.
Average reaction level=[{(Reaction index x reaction level)/No. of test subjects×maximum points (4 points)}×100]÷No. of test (9 times) Equation 2
Points were marked in accordance with reaction level, for example, ± for 1 point, + for 2 points, and ++ for […]. The composition can be considered safe if the average reaction level is below 3.

[3] = 5% in squalene, Week 1, of 30 subjects
[4] = 10% in squalene, Week 1, of 30 subjects

## O=C1CCC[C@@H]2[C@H]3CCCN4CCC[C@@H](CN12)[C@@H]34 [Matrine, matrine]
[1]; 10 μM
  Removal rate of superoxide anion (%): 6%
[1]; 100 μM
  Removal rate of superoxide anion (%): 12%
[1]; 500 μM
  Removal rate of superoxide anion (%): 24%
B16 mouse melanoma cells
  inhibition at 10 µM: 11%
  inhibition at 100 µM: 31%
  inhibition at 500 µM: 39%
tyrosinase
  inhibition at 10 µM: 13%
  inhibition at 100 µM: 32%
  inhibition at 500 µM: 37%
[2]; 1 μM
  Increasing rate of collagen synthesis (%): 20%
[2]; 10 μM
  Increasing rate of collagen synthesis (%): 23%
[2]; 50 μM
  Increasing rate of collagen synthesis (%): 40%
Human skin; 1% in squalene
  Average reaction level: 0
Human skin; 1% in squalene, Week 1, of 30 subjects
  No. of test subjects with reaction, 2nd, ±: 0
Human skin; 5% in squalene
  Average reaction level: 0.09
Human skin; [3]
  No. of test subjects with reaction, 1st, ±: 1
  No. of test subjects with reaction, 2nd, ±: 0
Human skin; 10% in squalene
  Average reaction level: 0.18
Human skin; [4]
  No. of test subjects with reaction, 1st, ±: 2
  No. of test subjects with reaction, 2nd, ±: 0

## O=C1CCC[C@@H]2[C@H]3CCC[N+]4([O-])CCC[C@@H](CN12)[C@@H]34 (some centres unmarked) [Oxymatrine, oxymatrine]
[1]; 10 μM
  Removal rate of superoxide anion (%): 4%
[1]; 100 μM
  Removal rate of superoxide anion (%): 17%
[1]; 500 μM
  Removal rate of superoxide anion (%): 32%
B16 mouse melanoma cells; 10 μM, 3 days
  inhibition at 10 µM: 13%
B16 mouse melanoma cells; 100 μM, 3 days
  inhibition at 100 µM: 27%
B16 mouse melanoma cells; 500 μM, 3 days
  inhibition at 500 µM: 31%
tyrosinase
  inhibition at 10 µM: 11%
  inhibition at 100 µM: 29%
  inhibition at 500 µM: 34%
[2]; 1 μM
  Increasing rate of collagen synthesis (%): 11%
[2]; 10 μM
  Increasing rate of collagen synthesis (%): 15%
[2]; 50 μM
  Increasing rate of collagen synthesis (%): 22%
Human skin; human, in vivo
  No. of test subjects with reaction, 1st, ±: 2
  No. of test subjects with reaction, 2nd, ±: 0
Human skin; in vivo
  No. of test subjects with reaction, 1st, ±: −
